{
  "source": "patent US5326898A",
  "about": "“Substituted phenylethenyl compounds having retinoid-like biological activity” (Allergan, Inc., priority 1992, dated 1994)",
  "origin": "cited, not measured here",
  "test_system": "ornithine decarboxylase (ODC)",
  "conditions": "qualitative; background statement on retinoic acid",
  "data": [
    {"compound": "CC1=C(/C=C/C(C)=C/C=C/C(C)=C/C(=O)O)C(C)(C)CCC1", "note": "[Retinoic acid]", "values": [
      {"measurement": "inhibition of induction of ODC activity by TPA", "result": "inhibits"}
    ]}
  ]
}
